This assay addresses full length MPS1 (Homo sapiens (Human), UniProt P33981). The experiment in a line: Measurement of inhibition of MPS1 kinase (Caliper EZ reader mobility-shift enzyme assay). It is filed as biochemical. As to conditions: full length MPS1 12.5 nM or 3 nM, H236 peptide 5 μM, ATP 10 μM, 60 min at room temperature. On the procedure: Measurement of Inhibition of MPS1 Kinase
The reaction was carried out for 60 min at room temperature and stopped by the addition of buffer (10 μl) containing 20 mM EDTA, 0.05% (v/v) Brij-35, in 0.1M HEPES-buffered saline (Free acid, Sigma, UK). The plate was read on a Caliper EZ reader II (Caliper Life Sciences).
The % inhibition of the compounds is calculated relative to the means of selected control wells.

full length MPS1, sequence (P33981 whole entry): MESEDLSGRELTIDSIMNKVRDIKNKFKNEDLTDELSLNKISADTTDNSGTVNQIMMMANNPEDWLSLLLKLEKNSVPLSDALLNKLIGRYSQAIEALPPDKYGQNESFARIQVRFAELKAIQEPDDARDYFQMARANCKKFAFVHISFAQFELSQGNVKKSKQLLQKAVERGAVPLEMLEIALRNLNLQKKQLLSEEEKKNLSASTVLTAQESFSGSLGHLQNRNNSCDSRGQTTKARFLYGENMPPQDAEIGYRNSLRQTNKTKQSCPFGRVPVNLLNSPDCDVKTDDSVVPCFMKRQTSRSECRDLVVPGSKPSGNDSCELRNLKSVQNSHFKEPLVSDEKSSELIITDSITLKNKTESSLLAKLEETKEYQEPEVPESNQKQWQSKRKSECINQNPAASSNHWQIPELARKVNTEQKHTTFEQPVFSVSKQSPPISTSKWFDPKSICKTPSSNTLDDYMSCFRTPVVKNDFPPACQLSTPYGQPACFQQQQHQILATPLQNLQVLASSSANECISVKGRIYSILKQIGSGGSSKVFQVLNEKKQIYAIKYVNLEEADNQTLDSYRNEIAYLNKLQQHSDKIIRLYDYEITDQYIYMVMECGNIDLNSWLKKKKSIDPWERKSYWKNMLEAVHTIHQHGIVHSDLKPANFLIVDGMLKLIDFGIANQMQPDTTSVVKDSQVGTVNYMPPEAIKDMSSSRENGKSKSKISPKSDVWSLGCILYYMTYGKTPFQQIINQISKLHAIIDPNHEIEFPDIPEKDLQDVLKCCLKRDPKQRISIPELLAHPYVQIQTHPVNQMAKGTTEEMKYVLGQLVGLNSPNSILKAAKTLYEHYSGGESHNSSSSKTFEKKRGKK

Regarding `COc1nc(N2CCOCC2)ccc1Nc1ncc2ccnc(NCC(C)(C)C)c2n1` [Example 45, N^2-(2-methoxy-6-morpholinopyridin-3-yl)-N8-neopentylpyrido[3,4-d]pyrimidine-2,8-diamine], the IC50 is 13 nM.

As to `COc1cc(-c2nnnn2C)ccc1Nc1ncc2ccnc(NCC(C)(C)OC)c2n1` [Example 163, N^8-(2-Methoxy-2-methylpropyl)-N^2-(2-methoxy-4-(1-methyl-1H-tetrazol-5-yl)phenyl)pyrido[3,4-d]pyrimidine-2,8-diamine], the IC50 amounted to 2 nM. Take `Clc1ccc(Nc2ncc3ccnc(N4CCC5(COC5)C4)c3n2)c(Cl)c1` [Example 207]: the IC50 amounted to 94 nM.

On to `COc1nc(-c2cn(C)nc2C)ccc1Nc1ncc2ccnc(NCC(C)(C)OC)c2n1` [Example 164, N^2-(6-(1,3-Dimethyl-1H-pyrazol-4-yl)-2-methoxypyridin-3-yl)-N^8-(2-methoxy-2-methylpropyl)pyrido[3,4-d]pyrimidine-2,8-diamine], for which the IC50 amounted to 3 nM.

With `COc1cc(-c2cnc(C)n2C)ccc1Nc1cc2c(-c3cnn(C)c3)cccc2cn1` [Example 10, N-(4-(1,2-dimethyl-1H-imidazol-5-yl)-2-methoxyphenyl)-5-(1-methyl-1H-pyrazol-4-yl)isoquinolin-3-amine], the IC50 worked out at 6 nM.

For `COc1cc(-c2cncn2C)ccc1Nc1ncc2ccnc(NCC(C)(C)C)c2n1` [Example 47, N2-(2-methoxy-4-(1-methyl-1H-imidazol-5-yl)phenyl)-N8-neopentylpyrido[3,4-d]pyrimidine-2,8-diamine], the IC50 was found to be 2 nM. The result for `COc1cc(C(=O)N2CC(OC)C2)ccc1Nc1cc2c(-c3cnn(C4CCN(C(=O)OC(C)(C)C)CC4)c3)cccc2cn1` [Example 3, tert-butyl 4-(4-(3-((2-methoxy-4-(3-methoxyazetidine-1-carbonyl)phenyl)-amino)isoquinolin-5-yl)-1H-pyrazol-1-yl)piperidine-1-carboxylate] reads 125 nM. `COc1cc(-c2cnn(C)c2)ccc1Nc1ncc2ccnc(NC[C@]3(C)CCOC3)c2n1` [Example 141, (S)—N^2-(2-methoxy-4-(1-methyl-1H-pyrazol-4-yl)phenyl)-N^3-((3-methyltetrahydrofuran-3-yl)methyl)pyrido[3,4-d]pyrimidine-2,8-diamine]: the IC50 was 3 nM. In the case of `COc1cc(C(=O)N2CC(OC)C2)ccc1Nc1ncc2ccnc(NCC(C)(C)OC)c2n1` [Example 193], the IC50 amounted to 4 nM. With `COc1cc(C(=O)N2CC(OC)C2)ccc1Nc1cc2c(-c3cnn(C)c3)cccc2cn1` [Example 24], the IC50 is 20 nM.

For `COc1cc(-c2nncn2C)ccc1Nc1ncc2cc(C)nc(NCC(C)(C)C)c2n1` [Example 179, N2-(2-methoxy-4-(4-methyl-4H-1,2,4-triazol-3-yl)phenyl)-6-methyl-N8-neopentylpyrido[3,4-d]pyrimidine-2,8-diamine], the IC50 is 2 nM. On to `COc1cc(-c2cnn(C)c2)ccc1Nc1ncc2ccnc(NCC(F)(F)F)c2n1` [Example 87, N2-(2-methoxy-4-(1-methyl-1H-pyrazol-4-yl)phenyl)-N8-(2,2,2-trifluoroethyl)pyrido[3,4-d]pyrimidine-2,8-diamine], for which the IC50 came to 75 nM.

For the molecule `COc1cc(-c2cnn(C)c2)ccc1Nc1ncc2ccnc(NC[C@@]3(C)CCOC3)c2n1` [Example 142, (R)—N^2-(2-methoxy-4-(1-methyl-1H-pyrazol-4-yl)phenyl)-N^3-((3-methyltetrahydrofuran-3-yl)methyl)pyrido[3,4-d]pyrimidine-2,8-diamine], the IC50 was found to be 3 nM.

With `COc1cc(-c2cnn(C)c2)ccc1Nc1ncc2ccnc(N3CCC(F)(F)C3)c2n1` [Example 57, 8-(3,3-difluoropyrroldin-1-yl)-N-(2-methoxy-4-(1-methyl-1H-pyrazol-4-yl)phenyl)pyrido[3,4-d]pyrimidin-2-amine], the IC50 turned out to be 12 nM. Consider `COc1cc(-c2cnn(C)c2)ccc1Nc1ncc2ccnc(N3CCC4(CCC4)C3)c2n1` [Example 66, N-(2-methoxy-4-(1-methyl-1H-pyrazol-4-yl)phenyl)-8-(6-azaspiro[3.4]octan-6-yl)pyrido[3,4-d]pyrimidin-2-amine], for which the IC50 was determined as 8 nM.

For the molecule `N#Cc1ccc(Nc2ncc3ccnc(N4CCC5(COC5)C4)c3n2)c(Cl)c1` [Example 205], the IC50 was found to be 87 nM. The result for `COc1cc(-c2cnn(C)c2)ccc1Nc1ncc2ccnc(NCC3(C)CCOC3)c2n1` (racemic) [Example 117, N^2-(2-methoxy-4-(1-methyl-1H-pyrazol-4-yl)phenyl)-N^8-((3-methyltetrahydrofuran-3-yl)methyl)pyrido[3,4-d]pyrimidine-2,8-diamine] reads 3 nM; that for `COc1cc(-c2cnn(C)c2)ccc1Nc1ncc2ccnc(N3CCC4(CCOC4)C3)c2n1` (stereo not drawn) [Example 122, N-(2-methoxy-4-(1-methyl-1H-pyrazol-4-yl)phenyl)-8-(2-oxa-7-azaspiro[4.4]nonan-7-yl)pyrido[3,4-d]pyrimidin-2-amine], 3 nM. `COc1cc(-c2cnn(C)c2)ccc1Nc1cc2c(-c3cnn(C)c3)nccc2cn1` [Example 103, N-(2-methoxy-4-(1-methyl-1H-pyrazol-4-yl)phenyl)-5-(1-methyl-1H-pyrazol-4-yl)-2,6-naphthyridin-3-amine]: the IC50 stood at 12 nM. Regarding `COC(C)(C)CNc1nccc2cnc(Nc3ccc(F)cc3OC(F)F)nc12` [Example 203], the IC50 came to 46 nM. For the molecule `COc1nc(-c2cnn(C)n2)ccc1Nc1ncc2ccnc(NCC(C)(C)OC)c2n1` [Example 167, N^8-(2-Methoxy-2-methylpropyl)-N^2-(2-methoxy-6-(2-methyl-2H-1,2,3-triazol-4-yl)pyridin-3-yl)pyrido[3,4-d]pyrimidine-2,8-diamine], the IC50 was determined as 23 nM.

Consider `CS(=O)(=O)c1ccc(Nc2ncc3ccnc(N4CCC5(COC5)C4)c3n2)c(Cl)c1` [Example 199], for which the IC50 worked out at 25 nM. In the case of `COc1cc(-c2cnn(C)c2)ccc1Nc1ncc2ccnc(N3CCCC(CO)C3)c2n1` (stereo not drawn) [Example 134, (1-(2-(2-Methoxy-4-(1-methyl-1H-pyrazol-4-yl)phenylamino)pyrido[3,4-d]pyrimidin-8-yl)piperidin-3-yl)methanol], the IC50 was 4 nM. As for `COc1cc(-c2cnn(C)c2)ccc1Nc1ncc2ccnc(N3CCS(=O)(=O)CC3)c2n1` [Example 118, 4-(2-((2-methoxy-4-(1-methyl-1H-pyrazol-4-yl)phenyl)amino)pyrido[3,4-d]pyrimidin-8-yl)thiomorpholine 1,1-dioxide], the IC50 stood at 11 nM.

On to `COc1cc(-c2cnn(C)c2)ccc1Nc1ncc2ccnc(N3CCN(C)CC3)c2n1` [Example 62, N-(2-methoxy-4-(1-methyl-1H-pyrazol-4-yl)phenyl)-8-(4-methylpiperazin-1-yl)pyrido[3,4-d]pyrimidin-2-amine], for which the IC50 stood at 9 nM. For the molecule `COc1cc(-c2cnn(C)c2)ccc1Nc1ncc2ccnc(N(C)C3CCOCC3)c2n1` [Example 81, N2-(2-methoxy-4-(1-methyl-1H-pyrazol-4-yl)phenyl)-N8-methyl-N8-(tetrahydro-2H-pyran-4-yl)pyrido[3,4-d]pyrimidine-2,8-diamine], the IC50 was found to be 33 nM. As for `COc1cc(C(=O)N2CC(OC)C2)ccc1Nc1cc2c(-c3cnn(C(C)C)c3)cccc2cn1` [Example 7, (4-((5-(1-isopropyl-1H-pyrazol-4-yl)isoquinolin-3-yl)amino)-3-methoxyphenyl)(3-methoxyazetidin-1-yl)methanone], the 50% inhibitory concentration (IC50) worked out at 11 nM.

These data come from patent US9409907B2, “Inhibitor compounds” (Cancer Research Technology Limited, priority 2012, dated 2016).
